Assay results: patent US12643910B2, “Substituted pyrazolo[3,4-b]pyridines as ectonucleotide pyrophosphatase/phosphodiesterase 1 (ENPP1) modulators” (SANFORD BURNHAM PREBYS MEDICAL DISCOVERY INSTITUTE, priority 2019, dated 2026)

Assays:
[1] = target: T1, ENPP3 (Homo sapiens, UniProt O14638); assay: ENPP3 Km ATP assay; assay type: biochemical; conditions: ATP at Km
T1 sequence (O14638 1-875): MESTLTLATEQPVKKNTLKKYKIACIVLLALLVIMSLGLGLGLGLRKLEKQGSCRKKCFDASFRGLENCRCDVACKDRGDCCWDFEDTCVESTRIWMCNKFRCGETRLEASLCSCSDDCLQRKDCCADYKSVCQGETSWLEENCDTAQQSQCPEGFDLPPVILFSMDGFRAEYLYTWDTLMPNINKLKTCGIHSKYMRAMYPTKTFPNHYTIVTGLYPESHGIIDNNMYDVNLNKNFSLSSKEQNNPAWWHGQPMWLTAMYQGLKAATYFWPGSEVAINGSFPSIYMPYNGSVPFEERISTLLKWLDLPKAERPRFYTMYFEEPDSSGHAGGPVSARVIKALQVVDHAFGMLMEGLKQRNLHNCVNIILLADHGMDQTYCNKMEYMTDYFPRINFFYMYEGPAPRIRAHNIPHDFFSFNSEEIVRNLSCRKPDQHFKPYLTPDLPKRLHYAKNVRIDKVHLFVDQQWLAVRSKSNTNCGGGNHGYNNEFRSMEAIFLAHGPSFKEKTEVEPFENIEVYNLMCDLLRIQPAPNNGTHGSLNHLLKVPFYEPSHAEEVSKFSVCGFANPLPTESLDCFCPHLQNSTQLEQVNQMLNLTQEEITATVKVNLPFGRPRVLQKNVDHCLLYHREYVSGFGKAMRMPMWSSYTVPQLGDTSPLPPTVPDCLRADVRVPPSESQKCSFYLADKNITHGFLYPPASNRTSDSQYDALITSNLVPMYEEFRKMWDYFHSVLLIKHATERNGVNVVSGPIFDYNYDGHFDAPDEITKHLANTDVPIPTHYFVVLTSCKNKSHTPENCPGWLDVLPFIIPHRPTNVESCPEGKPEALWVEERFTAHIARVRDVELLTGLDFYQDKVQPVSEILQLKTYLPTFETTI

[2] = target: T2, human ENPP1 (Homo sapiens, UniProt P22413); assay: ENPP1 assay with ATP substrate (Transcreener AMP2/GMP2 TR-FRET); assay type: biochemical; conditions: 1 hour at room temperature
T2 construct: made in house
T2 sequence (P22413 1-925): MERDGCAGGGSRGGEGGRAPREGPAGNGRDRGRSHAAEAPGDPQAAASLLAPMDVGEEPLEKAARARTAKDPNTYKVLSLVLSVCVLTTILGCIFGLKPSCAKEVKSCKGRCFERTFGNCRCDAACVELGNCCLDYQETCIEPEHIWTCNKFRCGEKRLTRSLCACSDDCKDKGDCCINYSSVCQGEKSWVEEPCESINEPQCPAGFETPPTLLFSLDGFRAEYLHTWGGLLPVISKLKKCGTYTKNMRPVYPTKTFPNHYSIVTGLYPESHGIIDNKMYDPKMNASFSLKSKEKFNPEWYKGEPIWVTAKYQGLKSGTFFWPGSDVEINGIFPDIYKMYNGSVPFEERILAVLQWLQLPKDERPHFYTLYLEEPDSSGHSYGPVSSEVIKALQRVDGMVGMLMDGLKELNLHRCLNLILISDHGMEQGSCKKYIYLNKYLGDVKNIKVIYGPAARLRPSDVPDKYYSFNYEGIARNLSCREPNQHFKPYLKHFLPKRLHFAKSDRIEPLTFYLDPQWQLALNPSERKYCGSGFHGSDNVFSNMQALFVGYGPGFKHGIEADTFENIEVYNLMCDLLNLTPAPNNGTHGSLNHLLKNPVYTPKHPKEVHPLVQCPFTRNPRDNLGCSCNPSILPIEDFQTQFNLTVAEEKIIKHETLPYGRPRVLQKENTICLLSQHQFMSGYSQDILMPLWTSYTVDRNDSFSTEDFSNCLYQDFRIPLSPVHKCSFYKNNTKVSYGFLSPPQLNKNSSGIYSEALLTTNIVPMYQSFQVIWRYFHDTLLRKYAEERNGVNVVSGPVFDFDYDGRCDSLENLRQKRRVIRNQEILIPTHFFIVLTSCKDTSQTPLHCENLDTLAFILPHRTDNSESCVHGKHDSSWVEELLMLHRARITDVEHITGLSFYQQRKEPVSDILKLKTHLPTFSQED
Method in brief: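 5′-AMP from ATP hydrolysis (300 nM ATP stock added; enzyme added as 8.5 μM stock) detected by competitive TR-FRET. Buffer: 50 mM Tris pH 7.5, 1 mM TCEP, 2 mM MgCl2, 0.005% Tween 20, 1% DMSO. Reaction 1 h at room temperature, EDTA stop. IC50 from 2-parameter variable-slope fit.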

Row | Structure (SMILES) | IC50 [1] | IC50 [2]
1 | CN1CCN(c2nc(N3CCC(NCCCc4ccncc4)CC3)c3cnn(C)c3n2)CC1 [Example 2.6, 1-(1-Methyl-6-(4-methylpiperazin-1-yl)-1H-pyrazolo[3,4-d]pyrimidin-4-yl)-N-(3-(pyridin-4-yl)propyl)piperidin-4-amine] | > 20 µM | > 20 µM
2 | Cc1cnccc1CCCNC1CCN(c2ncnc3c(C)csc23)CC1 [Example 3.35, N-(3-(3-Methylpyridin-4-yl)propyl)-1-(7-methylthieno[3,2-d]pyrimidin-4-yl)piperidin-4-amine] | > 20 µM | 0.1 to 1 µM
3 | Cn1ncc2c(NCc3ccc(S(N)(=O)=O)cc3)nc(N3CCOCC3)nc21 [Example 2.29, 4-(((1-Methyl-6-morpholino-1H-pyrazolo[3,4-d]pyrimidin-4-yl)amino)methyl)-benzenesulfonamide] | 0.1 to 1 µM | > 20 µM
4 | Cc1nc(N2CCC(NCCCc3ccc(F)cc3)CC2)c2cnn(C)c2n1 [Example 3.55, 1-(1,6-Dimethyl-1H-pyrazolo[3,4-d]pyrimidin-4-yl)-N-(3-(4-fluorophenyl)propyl)piperidin-4-amine] | > 20 µM | > 20 µM
5 | COc1cc(CNc2ccnc3c2cnn3C)ccc1S(N)(=O)=O [Example 2.65, 2-Methoxy-4-(((1-methyl-1H-pyrazolo[3,4-b]pyridin-4-yl)amino)methyl)-benzenesulfonamide] | > 20 µM | 1 to 20 µM
6 | Cn1cnc2c(NCc3ccc(S(N)(=O)=O)cc3)ncnc21 [Example 2.8, 4-(((9-Methyl-9H-purin-6-yl)amino)methyl)benzenesulfonamide] | 1 to 20 µM | > 20 µM
7 | NS(=O)(=O)c1ccc(CNc2nc(-c3ccccn3)nc3scc(-c4ccncc4)c23)cc1 [Example 1.20, 4-(((2-(Pyridin-2-yl)-5-(pyridin-4-yl)thieno[2,3-d]pyrimidin-4-yl)amino)methyl)-benzenesulfonamide] | > 20 µM | 1 to 20 µM
8 | COc1cc(S(N)(=O)=O)ccc1CNc1ccnc2c1cnn2C [Example 2.63, 3-Methoxy-4-(((1-methyl-1H-pyrazolo[3,4-b]pyridin-4-yl)amino)methyl)benzenesulfonamide] | 1 to 20 µM | 0.1 to 1 µM
9 | Cn1ncc2c(NCc3ccc(S(N)(=O)=O)cc3)nc(C(F)(F)F)nc21 [Example 2.133, 4-((1-Methyl-6-trifluoromethyl-1H-pyrazolo[3,4-d]pyrimidin-4-yl)aminomethyl)-benzenesulfonamide] | 1 to 20 µM | 1 to 20 µM
10 | Cc1csc2c(N3CCC(NCc4ccccc4)CC3)ncnc12 [Example 3.0, N-Benzyl-1-(7-methylthieno[3,2-d]pyrimidin-4-yl)piperidin-4-amine] | > 20 µM | 0.1 to 1 µM
11 | Cc1nc(N2CCC(NCCCc3ccncc3)CC2)c2scc(C)c2n1 [Example 3.52, 1-(2,7-Dimethylthieno[3,2-d]pyrimidin-4-yl)-N-(3-(pyridin-4-yl)propyl)piperidin-4-amine] | > 20 µM | > 20 µM
12 | Cc1nc(N2CCC(NCCCc3ccncc3)CC2)c2cnn(C)c2n1 [Example 2.51, 1-(1,6-Dimethyl-1H-pyrazolo[3,4-d]pyrimidin-4-yl)-N-(3-(pyridin-4-yl)propyl)piperidin-4-amine] | > 20 µM | > 20 µM
13 | NS(=O)(=O)c1ccc(CNc2ncnc3scc(C4=CCCCC4)c23)cc1 [Example 1.69, 4-((5-(1-Cyclohexenyl)thieno[2,3-d]pyrimidin-4-yl)aminomethyl)benzenesulfonamide] | 0.1 to 1 µM | > 20 µM
14 | NS(=O)(=O)c1ccc(CNc2ncnc3scc(Br)c23)cc1 [Example 1.49, 4-((5-Bromothieno[2,3-d]pyrimidin-4-yl)aminomethyl)benzenesulfonamide] | < 0.1 µM | 0.1 to 1 µM
15 | Cc1ccc(CNc2nc(-c3ccccn3)nc3scc(-c4ccccc4)c23)cc1 [Example 1.7, (4-Methyl-benzyl)-(5-phenyl-2-pyridin-2-yl-thieno[2,3-d]pyrimidin-4-yl)-amine] | > 20 µM | > 20 µM
